Laboratory results reported in ChEMBL document CHEMBL5442219.

Legend:
Conditions in all cases: Compound concentration 10 µM
[1] = target: Sodium-dependent noradrenaline transporter (Homo sapiens) (UniProt P23975)
Description: PDSP Primary Binding target: SLC6A2 - Compounds are tested at 10 uM concentration, plate are incubated at room temperature in the dark for 90 minutes. Reaction are stopped by vacuum filtration onto 0.3% polyethyleneimine soaked filter mats using Filtermate harvester. Scintilation cocktail is then melted onto microwave-dried filters on a hot plate and the radio activity is counted in Microbia counter.

[2] = target: Sodium-dependent serotonin transporter (Homo sapiens) (UniProt P31645)
Description: PDSP Primary Binding target: SLC6A4 - Compounds are tested at 10 uM concentration, plate are incubated at room temperature in the dark for 90 minutes. Reaction are stopped by vacuum filtration onto 0.3% polyethyleneimine soaked filter mats using Filtermate harvester. Scintilation cocktail is then melted onto microwave-dried filters on a hot plate and the radio activity is counted in Microbia counter.

[3] = target: T1, Alpha-1B adrenergic receptor (Homo sapiens) (UniProt P35368)
T1 sequence (whole entry): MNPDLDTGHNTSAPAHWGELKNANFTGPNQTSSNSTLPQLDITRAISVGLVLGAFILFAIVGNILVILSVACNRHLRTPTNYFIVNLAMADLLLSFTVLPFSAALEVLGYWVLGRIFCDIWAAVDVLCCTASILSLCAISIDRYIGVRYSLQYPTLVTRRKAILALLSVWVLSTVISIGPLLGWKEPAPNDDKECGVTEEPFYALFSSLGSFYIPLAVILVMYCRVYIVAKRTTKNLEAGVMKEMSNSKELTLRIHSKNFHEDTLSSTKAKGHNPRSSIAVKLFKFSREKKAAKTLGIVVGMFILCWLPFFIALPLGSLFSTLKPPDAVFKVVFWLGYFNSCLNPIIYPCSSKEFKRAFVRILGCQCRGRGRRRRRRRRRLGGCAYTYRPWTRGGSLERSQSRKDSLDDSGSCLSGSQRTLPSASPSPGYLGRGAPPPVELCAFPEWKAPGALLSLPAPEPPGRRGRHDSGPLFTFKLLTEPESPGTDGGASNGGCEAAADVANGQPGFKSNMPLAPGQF
Description: PDSP Primary Binding target: ADRA1B - Compounds are tested at 10 uM concentration, plate are incubated at room temperature in the dark for 90 minutes. Reaction are stopped by vacuum filtration onto 0.3% polyethyleneimine soaked filter mats using Filtermate harvester. Scintilation cocktail is then melted onto microwave-dried filters on a hot plate and the radio activity is counted in Microbia counter.

[4] = target: Sodium-dependent dopamine transporter (Homo sapiens) (UniProt Q01959)
Chain of Sodium-dependent dopamine transporter (Homo sapiens) (Q01959 whole entry): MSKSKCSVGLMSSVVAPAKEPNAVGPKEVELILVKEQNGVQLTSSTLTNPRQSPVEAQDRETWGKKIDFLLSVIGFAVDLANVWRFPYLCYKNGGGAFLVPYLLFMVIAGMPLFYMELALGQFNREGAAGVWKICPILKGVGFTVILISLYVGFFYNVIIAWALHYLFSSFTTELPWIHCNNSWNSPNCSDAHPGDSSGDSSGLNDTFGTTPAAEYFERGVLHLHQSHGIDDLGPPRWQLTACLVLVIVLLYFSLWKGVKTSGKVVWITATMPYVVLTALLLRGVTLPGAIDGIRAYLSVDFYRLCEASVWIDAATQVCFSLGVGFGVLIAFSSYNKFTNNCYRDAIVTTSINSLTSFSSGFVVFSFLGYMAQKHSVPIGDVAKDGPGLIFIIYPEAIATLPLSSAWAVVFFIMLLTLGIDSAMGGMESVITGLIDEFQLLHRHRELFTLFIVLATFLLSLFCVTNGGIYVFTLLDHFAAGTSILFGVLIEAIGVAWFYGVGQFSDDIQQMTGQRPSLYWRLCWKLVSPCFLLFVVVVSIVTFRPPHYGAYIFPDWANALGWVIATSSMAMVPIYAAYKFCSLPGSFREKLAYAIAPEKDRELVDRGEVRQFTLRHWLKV
Description: PDSP Primary Binding target: SLC6A3 - Compounds are tested at 10 uM concentration, plate are incubated at room temperature in the dark for 90 minutes. Reaction are stopped by vacuum filtration onto 0.3% polyethyleneimine soaked filter mats using Filtermate harvester. Scintilation cocktail is then melted onto microwave-dried filters on a hot plate and the radio activity is counted in Microbia counter.

[5] = target: 5-hydroxytryptamine receptor 5A (Homo sapiens) (UniProt P47898)
Chain of 5-hydroxytryptamine receptor 5A (Homo sapiens) (P47898 whole entry): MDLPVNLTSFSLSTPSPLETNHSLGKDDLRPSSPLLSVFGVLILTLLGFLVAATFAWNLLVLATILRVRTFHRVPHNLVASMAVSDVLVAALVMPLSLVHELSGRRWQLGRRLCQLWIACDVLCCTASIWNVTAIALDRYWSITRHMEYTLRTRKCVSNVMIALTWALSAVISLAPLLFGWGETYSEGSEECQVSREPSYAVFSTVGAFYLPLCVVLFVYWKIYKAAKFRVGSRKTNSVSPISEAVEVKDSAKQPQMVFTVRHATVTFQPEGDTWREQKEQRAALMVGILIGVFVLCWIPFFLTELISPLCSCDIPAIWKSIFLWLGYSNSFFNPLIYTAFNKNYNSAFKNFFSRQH
Description: PDSP Primary Binding target: HTR5A - Compounds are tested at 10 uM concentration, plate are incubated at room temperature in the dark for 90 minutes. Reaction are stopped by vacuum filtration onto 0.3% polyethyleneimine soaked filter mats using Filtermate harvester. Scintilation cocktail is then melted onto microwave-dried filters on a hot plate and the radio activity is counted in Microbia counter.

[6] = target: T2, 5-hydroxytryptamine receptor 3A (Homo sapiens) (UniProt P46098)
T2 sequence (whole entry): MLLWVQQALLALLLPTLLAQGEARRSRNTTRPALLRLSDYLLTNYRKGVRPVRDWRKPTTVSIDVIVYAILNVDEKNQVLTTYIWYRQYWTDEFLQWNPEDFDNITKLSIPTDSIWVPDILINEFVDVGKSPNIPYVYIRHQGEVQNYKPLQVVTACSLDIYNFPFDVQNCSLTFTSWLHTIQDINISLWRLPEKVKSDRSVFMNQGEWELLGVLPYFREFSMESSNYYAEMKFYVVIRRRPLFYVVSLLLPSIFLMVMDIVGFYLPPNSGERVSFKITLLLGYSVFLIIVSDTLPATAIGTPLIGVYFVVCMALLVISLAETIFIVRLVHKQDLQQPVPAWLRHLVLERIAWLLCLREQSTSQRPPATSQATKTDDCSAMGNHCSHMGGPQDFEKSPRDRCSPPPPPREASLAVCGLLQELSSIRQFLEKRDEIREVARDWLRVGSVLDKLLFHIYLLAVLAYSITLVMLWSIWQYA
Description: PDSP Primary Binding target: HTR3A - Compounds are tested at 10 uM concentration, plate are incubated at room temperature in the dark for 90 minutes. Reaction are stopped by vacuum filtration onto 0.3% polyethyleneimine soaked filter mats using Filtermate harvester. Scintilation cocktail is then melted onto microwave-dried filters on a hot plate and the radio activity is counted in Microbia counter.

[7] = target: D(2) dopamine receptor (Homo sapiens) (UniProt P14416)
Chain of D(2) dopamine receptor (Homo sapiens) (P14416 whole entry): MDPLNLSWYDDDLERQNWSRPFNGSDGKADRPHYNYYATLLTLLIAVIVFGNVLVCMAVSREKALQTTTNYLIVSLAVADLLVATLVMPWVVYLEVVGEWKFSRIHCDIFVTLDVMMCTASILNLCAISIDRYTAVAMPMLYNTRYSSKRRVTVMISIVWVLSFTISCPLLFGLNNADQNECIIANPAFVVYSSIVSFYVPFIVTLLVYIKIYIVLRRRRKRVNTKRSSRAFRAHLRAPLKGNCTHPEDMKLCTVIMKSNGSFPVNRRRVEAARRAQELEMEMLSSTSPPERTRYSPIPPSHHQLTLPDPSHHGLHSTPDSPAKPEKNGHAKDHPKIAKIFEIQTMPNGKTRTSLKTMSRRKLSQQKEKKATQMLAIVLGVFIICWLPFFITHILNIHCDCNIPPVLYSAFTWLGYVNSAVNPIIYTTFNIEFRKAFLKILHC
Description: PDSP Primary Binding target: DRD2 - Compounds are tested at 10 uM concentration, plate are incubated at room temperature in the dark for 90 minutes. Reaction are stopped by vacuum filtration onto 0.3% polyethyleneimine soaked filter mats using Filtermate harvester. Scintilation cocktail is then melted onto microwave-dried filters on a hot plate and the radio activity is counted in Microbia counter.

[8] = target: T3, Alpha-2A adrenergic receptor (Homo sapiens) (UniProt P08913)
T3 sequence (whole entry): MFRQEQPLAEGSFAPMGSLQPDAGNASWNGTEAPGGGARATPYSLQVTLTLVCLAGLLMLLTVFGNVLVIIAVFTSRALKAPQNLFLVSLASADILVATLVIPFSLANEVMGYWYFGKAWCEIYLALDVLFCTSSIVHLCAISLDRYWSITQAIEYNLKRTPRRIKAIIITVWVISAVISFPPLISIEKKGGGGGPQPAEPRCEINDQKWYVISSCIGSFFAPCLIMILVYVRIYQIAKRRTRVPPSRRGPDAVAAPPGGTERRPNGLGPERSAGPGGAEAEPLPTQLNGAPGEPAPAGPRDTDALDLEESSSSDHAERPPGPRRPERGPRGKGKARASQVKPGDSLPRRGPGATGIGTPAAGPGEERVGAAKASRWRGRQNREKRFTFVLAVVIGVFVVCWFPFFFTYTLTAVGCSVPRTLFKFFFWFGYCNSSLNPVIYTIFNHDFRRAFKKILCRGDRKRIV
Description: PDSP Primary Binding target: ADRA2A - Compounds are tested at 10 uM concentration, plate are incubated at room temperature in the dark for 90 minutes. Reaction are stopped by vacuum filtration onto 0.3% polyethyleneimine soaked filter mats using Filtermate harvester. Scintilation cocktail is then melted onto microwave-dried filters on a hot plate and the radio activity is counted in Microbia counter.

[9] = target: Histamine H1 receptor (Homo sapiens) (UniProt P35367)
Chain of Histamine H1 receptor (Homo sapiens) (P35367 whole entry): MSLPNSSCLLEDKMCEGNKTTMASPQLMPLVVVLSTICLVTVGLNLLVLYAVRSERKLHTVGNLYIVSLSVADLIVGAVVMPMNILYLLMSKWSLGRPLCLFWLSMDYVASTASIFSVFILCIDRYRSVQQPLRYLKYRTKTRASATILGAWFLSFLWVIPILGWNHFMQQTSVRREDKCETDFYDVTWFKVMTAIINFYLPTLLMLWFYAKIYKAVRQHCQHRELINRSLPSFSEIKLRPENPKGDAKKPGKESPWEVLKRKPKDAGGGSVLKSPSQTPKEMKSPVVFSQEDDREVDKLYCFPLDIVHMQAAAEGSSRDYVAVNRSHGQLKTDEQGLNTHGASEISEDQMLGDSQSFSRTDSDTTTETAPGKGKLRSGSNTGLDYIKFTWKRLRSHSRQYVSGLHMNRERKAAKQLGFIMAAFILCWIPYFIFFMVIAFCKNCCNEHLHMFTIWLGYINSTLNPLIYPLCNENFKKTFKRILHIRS
Description: PDSP Primary Binding target: HRH1 - Compounds are tested at 10 uM concentration, plate are incubated at room temperature in the dark for 90 minutes. Reaction are stopped by vacuum filtration onto 0.3% polyethyleneimine soaked filter mats using Filtermate harvester. Scintilation cocktail is then melted onto microwave-dried filters on a hot plate and the radio activity is counted in Microbia counter.

[10] = target: Sigma non-opioid intracellular receptor 1 (Homo sapiens) (UniProt Q99720)
Chain of Sigma non-opioid intracellular receptor 1 (Homo sapiens) (Q99720 whole entry): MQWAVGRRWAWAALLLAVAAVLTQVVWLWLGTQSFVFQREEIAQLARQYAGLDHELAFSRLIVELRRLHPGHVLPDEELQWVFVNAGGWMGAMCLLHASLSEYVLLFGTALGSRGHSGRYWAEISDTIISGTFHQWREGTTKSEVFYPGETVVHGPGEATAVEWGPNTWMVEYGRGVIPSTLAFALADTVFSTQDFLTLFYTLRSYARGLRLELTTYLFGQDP
Description: PDSP Primary Binding target: SIGMAR1 - Compounds are tested at 10 uM concentration, plate are incubated at room temperature in the dark for 90 minutes. Reaction are stopped by vacuum filtration onto 0.3% polyethyleneimine soaked filter mats using Filtermate harvester. Scintilation cocktail is then melted onto microwave-dried filters on a hot plate and the radio activity is counted in Microbia counter.

[11] = target: Histamine H2 receptor (Homo sapiens) (UniProt P25021)
Chain of Histamine H2 receptor (Homo sapiens) (P25021 whole entry): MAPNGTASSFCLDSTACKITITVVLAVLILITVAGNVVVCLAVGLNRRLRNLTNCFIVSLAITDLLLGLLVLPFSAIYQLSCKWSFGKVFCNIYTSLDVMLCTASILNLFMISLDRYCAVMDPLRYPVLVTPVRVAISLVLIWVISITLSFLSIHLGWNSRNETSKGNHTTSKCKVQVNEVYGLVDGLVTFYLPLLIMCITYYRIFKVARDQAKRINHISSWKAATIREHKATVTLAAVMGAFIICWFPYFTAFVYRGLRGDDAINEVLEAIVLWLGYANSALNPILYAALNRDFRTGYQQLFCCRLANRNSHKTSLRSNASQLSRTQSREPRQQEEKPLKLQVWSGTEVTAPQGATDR
Description: PDSP Primary Binding target: HRH2 - Compounds are tested at 10 uM concentration, plate are incubated at room temperature in the dark for 90 minutes. Reaction are stopped by vacuum filtration onto 0.3% polyethyleneimine soaked filter mats using Filtermate harvester. Scintilation cocktail is then melted onto microwave-dried filters on a hot plate and the radio activity is counted in Microbia counter.

[12] = target: 5-hydroxytryptamine receptor 1E (Homo sapiens) (UniProt P28566)
Chain of 5-hydroxytryptamine receptor 1E (Homo sapiens) (P28566 whole entry): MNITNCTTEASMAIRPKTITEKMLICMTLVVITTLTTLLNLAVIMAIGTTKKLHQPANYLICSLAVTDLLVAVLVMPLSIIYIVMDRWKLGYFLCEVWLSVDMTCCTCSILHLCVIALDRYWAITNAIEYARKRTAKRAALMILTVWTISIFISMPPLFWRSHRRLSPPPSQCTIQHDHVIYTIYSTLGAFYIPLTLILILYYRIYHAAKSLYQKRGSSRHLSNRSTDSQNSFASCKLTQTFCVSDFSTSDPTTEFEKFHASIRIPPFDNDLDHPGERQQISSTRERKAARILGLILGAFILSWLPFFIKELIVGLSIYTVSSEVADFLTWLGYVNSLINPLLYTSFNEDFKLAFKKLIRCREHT
Description: PDSP Primary Binding target: HTR1E - Compounds are tested at 10 uM concentration, plate are incubated at room temperature in the dark for 90 minutes. Reaction are stopped by vacuum filtration onto 0.3% polyethyleneimine soaked filter mats using Filtermate harvester. Scintilation cocktail is then melted onto microwave-dried filters on a hot plate and the radio activity is counted in Microbia counter.

[13] = target: D(1A) dopamine receptor (Homo sapiens) (UniProt P21728)
Chain of D(1A) dopamine receptor (Homo sapiens) (P21728 whole entry): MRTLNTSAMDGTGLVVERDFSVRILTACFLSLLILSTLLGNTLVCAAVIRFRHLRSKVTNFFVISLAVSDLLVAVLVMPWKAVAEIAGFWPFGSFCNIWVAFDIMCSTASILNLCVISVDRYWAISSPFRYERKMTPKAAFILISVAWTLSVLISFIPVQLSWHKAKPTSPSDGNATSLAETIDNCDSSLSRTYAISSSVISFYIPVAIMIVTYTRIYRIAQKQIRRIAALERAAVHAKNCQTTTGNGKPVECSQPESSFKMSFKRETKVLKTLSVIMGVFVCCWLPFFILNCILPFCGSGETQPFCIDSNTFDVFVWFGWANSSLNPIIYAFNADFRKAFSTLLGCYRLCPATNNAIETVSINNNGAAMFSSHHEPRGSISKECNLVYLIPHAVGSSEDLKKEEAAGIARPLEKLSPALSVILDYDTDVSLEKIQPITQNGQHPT
Description: PDSP Primary Binding target: DRD1 - Compounds are tested at 10 uM concentration, plate are incubated at room temperature in the dark for 90 minutes. Reaction are stopped by vacuum filtration onto 0.3% polyethyleneimine soaked filter mats using Filtermate harvester. Scintilation cocktail is then melted onto microwave-dried filters on a hot plate and the radio activity is counted in Microbia counter.

[14] = target: Translocator protein (Homo sapiens) (UniProt P30536)
Chain of Translocator protein (Homo sapiens) (P30536 whole entry): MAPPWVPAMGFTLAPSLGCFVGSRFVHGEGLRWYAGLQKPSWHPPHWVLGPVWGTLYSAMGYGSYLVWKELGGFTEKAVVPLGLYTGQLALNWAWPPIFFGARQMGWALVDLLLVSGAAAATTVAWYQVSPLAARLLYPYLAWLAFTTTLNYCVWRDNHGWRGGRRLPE
Description: PDSP Primary Binding target: TSPO - Compounds are tested at 10 uM concentration, plate are incubated at room temperature in the dark for 90 minutes. Reaction are stopped by vacuum filtration onto 0.3% polyethyleneimine soaked filter mats using Filtermate harvester. Scintilation cocktail is then melted onto microwave-dried filters on a hot plate and the radio activity is counted in Microbia counter.

[15] = target: T4, Muscarinic acetylcholine receptor M4 (Homo sapiens) (UniProt P08173)
T4 sequence (whole entry): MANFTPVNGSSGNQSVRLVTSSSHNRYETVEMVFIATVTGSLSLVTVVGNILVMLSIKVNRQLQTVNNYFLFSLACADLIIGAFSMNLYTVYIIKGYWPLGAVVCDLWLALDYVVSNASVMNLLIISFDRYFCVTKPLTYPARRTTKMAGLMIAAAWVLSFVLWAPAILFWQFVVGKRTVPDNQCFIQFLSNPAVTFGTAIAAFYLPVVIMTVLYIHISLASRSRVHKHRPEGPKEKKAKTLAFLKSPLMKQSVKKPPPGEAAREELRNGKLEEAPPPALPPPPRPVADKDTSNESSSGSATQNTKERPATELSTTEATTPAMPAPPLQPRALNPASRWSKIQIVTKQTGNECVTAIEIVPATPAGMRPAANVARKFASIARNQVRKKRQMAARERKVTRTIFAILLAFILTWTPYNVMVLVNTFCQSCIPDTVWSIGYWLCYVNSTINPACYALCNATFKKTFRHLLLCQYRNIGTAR
Description: PDSP Primary Binding target: CHRM4 - Compounds are tested at 10 uM concentration, plate are incubated at room temperature in the dark for 90 minutes. Reaction are stopped by vacuum filtration onto 0.3% polyethyleneimine soaked filter mats using Filtermate harvester. Scintilation cocktail is then melted onto microwave-dried filters on a hot plate and the radio activity is counted in Microbia counter.

Chain of Sodium-dependent serotonin transporter (Homo sapiens) (P31645 whole entry, looked up): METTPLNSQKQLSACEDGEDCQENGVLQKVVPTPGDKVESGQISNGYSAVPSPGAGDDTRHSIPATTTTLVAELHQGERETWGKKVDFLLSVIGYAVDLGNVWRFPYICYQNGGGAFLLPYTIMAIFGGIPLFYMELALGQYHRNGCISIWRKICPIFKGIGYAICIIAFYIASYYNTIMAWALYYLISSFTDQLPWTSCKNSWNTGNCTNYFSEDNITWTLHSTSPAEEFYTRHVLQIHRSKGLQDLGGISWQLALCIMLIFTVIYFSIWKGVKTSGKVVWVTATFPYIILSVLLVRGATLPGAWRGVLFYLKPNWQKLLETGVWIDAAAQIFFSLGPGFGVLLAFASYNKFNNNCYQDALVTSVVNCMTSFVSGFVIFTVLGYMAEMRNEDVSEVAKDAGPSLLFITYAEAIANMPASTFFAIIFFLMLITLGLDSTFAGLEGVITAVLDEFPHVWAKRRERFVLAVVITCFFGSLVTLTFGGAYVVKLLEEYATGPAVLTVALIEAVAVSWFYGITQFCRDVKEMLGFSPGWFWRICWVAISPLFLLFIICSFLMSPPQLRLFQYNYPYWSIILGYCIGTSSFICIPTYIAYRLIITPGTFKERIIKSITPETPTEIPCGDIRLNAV
Chain of Sodium-dependent noradrenaline transporter (Homo sapiens) (P23975 whole entry): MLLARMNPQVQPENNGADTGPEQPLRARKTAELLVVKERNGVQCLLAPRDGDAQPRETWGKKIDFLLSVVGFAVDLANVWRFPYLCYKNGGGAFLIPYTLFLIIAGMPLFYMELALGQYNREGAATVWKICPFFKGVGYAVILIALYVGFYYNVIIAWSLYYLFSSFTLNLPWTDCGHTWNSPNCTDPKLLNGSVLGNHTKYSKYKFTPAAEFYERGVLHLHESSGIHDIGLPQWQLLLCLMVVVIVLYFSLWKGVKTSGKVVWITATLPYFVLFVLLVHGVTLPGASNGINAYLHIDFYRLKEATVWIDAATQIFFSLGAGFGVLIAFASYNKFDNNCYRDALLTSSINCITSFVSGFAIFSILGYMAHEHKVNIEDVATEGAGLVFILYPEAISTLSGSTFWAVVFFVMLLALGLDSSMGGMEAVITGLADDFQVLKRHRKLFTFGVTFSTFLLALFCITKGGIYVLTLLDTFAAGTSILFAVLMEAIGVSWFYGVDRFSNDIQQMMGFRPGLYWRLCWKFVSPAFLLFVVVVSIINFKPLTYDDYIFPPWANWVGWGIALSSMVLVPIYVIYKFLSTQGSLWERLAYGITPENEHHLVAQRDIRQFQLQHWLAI

SMILES	inhibition [1] [%]	inhibition [2] [%]	inhibition [3] [%]	inhibition [4] [%]	inhibition [5] [%]	inhibition [6] [%]	inhibition [7] [%]	inhibition [8] [%]	inhibition [9] [%]	inhibition [10] [%]	inhibition [11] [%]	inhibition [12] [%]	inhibition [13] [%]	inhibition [14] [%]	inhibition [15] [%]
COc1ccc(S(=O)(=O)N2c3ccc(Cl)cc3[C@](O)(c3ccccc3Cl)[C@@H]2C(=O)N2CCC[C@H]2C(N)=O)cc1OC	2.92	46.5	2.62	42.4	-7.91	-3.87	11.8	12.7	5.97	16.4	15.4				
CCCCN(CC)c1nc(C)nc2c1c(C)cn2-c1c(C)cc(C)cc1C	-0.04	2.76	14.4	36		-1.19	4.03	4.06	12.4	28.8	20.9	18.4	19.2	74.3	
COc1ccc(NS(=O)(=O)c2sc3ccc(Cl)cc3c2C)cc1N1CCNCC1	61.7	37.7	65.1	63.1	58.1	73.3	37.4	75.7	15.6	83.6	13.5	13.8	16.9	39.5	5.58
O=c1ccn([C@@H]2O[C@H](COP(=O)(O)OP(=O)(O)O)[C@@H](O)[C@H]2O)c(=O)[nH]1	13.7	21.1	-6.51	6.84			14.8		34.8	4.23	-7.58	9.09		5.14	9.94
CCc1ccc(OCc2ccccc2C(=O)Nc2ccc3nc(C)cc(N)c3c2)cc1	87.4	36	60.5	68.4	52.3	24.7	36.2	42.2	7.44	58.1	46.7	9.69	47.8	54.7	65.2
CCCCCNC(=O)NS(=O)(=O)c1cc([N+](=O)[O-])ccc1NC1CCCCC1	83.9	85.4	13.4	26.3		-7.62	7.7		12.8	16	-2.95	16.8	-2.52	34.5	4.78
CN1C2CCC1CC(OC(c1ccc(F)cc1)c1ccc(F)cc1)C2 (stereo unspecified)	102	15.4	96.5	96.9	83.1	79.5	67.8			93.6	86.9	14.3	83	47.8	95.6
CC[C@@H]1CN2C(=O)N(C)c3nc(-c4ccccc4)[nH]c3C2=N1	19.5	-6.29	-5.35	0.34	14.4			-7.63	27.4	64.2	0.52	23.8		-3.48	
COc1cc(-n2cnc3cc(-c4ccc(Cl)cc4)sc3c2=O)ccc1OCCN1CCCC1	80.4	85.8	27.2	66.4	85.3	22.5	30.2	70.6	42.2	98.9	18.7		11.7	11.9	73.8
COc1ccc(/C=C/CCCCOc2ccc(C(=O)c3cccc(C(=O)O)c3)cc2CCC(=O)O)cc1	-6.68	11.1	-5.5	23.6	-8.69	-4.61	28.2		18.1	11.6	21.3	8.42	-0.17	35.5	
C[C@@H](NCCc1ccc(O)cc1)[C@@H](O)c1ccc(O)cc1 (relative stereo)	51.8	52.3	21.4	39.6			23.8	-0.38	24.2	75	8.2	-0.11	-9.44	3.95	33
CCCCN(CCCC)C(=O)CN1C[C@@H](c2ccc3c(c2)OCO3)[C@H](C(=O)O)[C@H]1c1ccc(OC)cc1	5.56	-9.18	-5.54	25.8		2.68	21.1	0.09	3.82	59.9	31	-0.09	-3.74	84.7	7.9
C[C@@H](NCCCc1cccc(C(F)(F)F)c1)c1cccc2ccccc12	60.8	62.7	53.8	70.4	81.9	15.4	25.8	27.9	12.7		62.1	18	8.33	13.5	-2.86
Cc1csc2c(N[C@@H](C)CN3CCN(S(=O)(=O)c4ccc(Cl)c(Cl)c4)CC3)ncnc12	-2.51	44.9	7.3				32.8	-8.93	20.4	86	45.2	-3.07	-2.84	73.6	
